Measured values published in patent US11504369B2, “Cytosine-based TET enzyme inhibitors” (President and Trustees of Bates College, priority 2019, dated 2022).
“Also recorded” adds a separate entry of the source.

Tests used:
TET2 = target: T1, TET2 (Homo sapiens, UniProt Q6N021); experiment: Chemiluminescence ELISA of TET2-mediated oxidation of methylated DNA; format: biochemical; settings: dose-response
T1 construct: purchased Bioscience 50652
Procedure: Procedure adapted from manual (Bioscience; TET1: 50651, TET2: 50652). Prepare TBST buffer (1× TBS, pH 8.0, containing 0.05% Tween-20). […] Dilute primary antibody 100-fold with blocking buffer. Diluted secondary antibody 1000-fold with blocking buffer. […] To 96-well plate provided, add 200 μl TBST buffer to each well and incubate at room temperature for 15 min. Remove TBST buffer and add 20 μl 1.5× TAB, 10 μl inhibitor solution, 20 μl diluted TET to each well. For controls, add 10 μl 5% DMSO solution and 20 μl 1.0× TAB. Incubate at room temperature for 2 h. Remove reaction solution and wash 3× with TBST buffer (200, 200, and 100 μl). Add 100 μl blocking buffer 53 μl diluted primary antibody and shake at room temperature for 1 h. Remove diluted primary antibody and wash 3× with TBST buffer (200, 200, and 100 μl). Add 100 μl blocking buffer to each well and shake at room temperature for 10 min. Remove blocking buffer. Add 100 μl diluted secondary antibody. Shake at room temperature for 30 min. […] Immediately, read chemiluminescence (BioTek Synergy 2 plate reader).

TET1 = target: T2, TET1 (Homo sapiens, UniProt Q8NFU7); experiment: Chemiluminescence ELISA of TET1-mediated oxidation of methylated DNA; format: biochemical; settings: for TET1 inhibition (in words): compound at 100 μM in ELISA
T2 construct: purchased Bioscience 50651
Procedure: To determine whether cytosine analogs inhibited TET-mediated oxidation of methylated DNA, the amount of hydroxymethylcytosine in reactions containing TET enzyme alone or TET enzyme and a cytosine analog were determined using chemiluminescence ELISA assays.
Procedure adapted from manual (Bioscience; TET1: 50651, TET2: 50652). Prepare TBST buffer (1× TBS, pH 8.0, containing 0.05% Tween-20). Dilute 4.0× TET Assay Buffer (TAB) to 1.5× TAB and 1.0× TAB evenly with diluted water. Thaw and dilute (5.0 ng/μl for TET1 and 10 ng/μl for TET2) TET enzyme from kit with 1.0× TAB. Dilute primary antibody 100-fold with blocking buffer. Diluted secondary antibody 1000-fold with blocking buffer. Dilute DMSO inhibitor solutions with 1.0× TAB to wanted concentration (ensure solutions are 5% DMSO). To 96-well plate provided, add 200 μl TBST buffer to each well and incubate at room temperature for 15 min. Remove TBST buffer and add 20 μl 1.5× TAB, 10 μl inhibitor solution, 20 μl diluted TET to each well. For controls, add 10 μl 5% DMSO solution and 20 μl 1.0× TAB. Incubate at room temperature for 2 h. Remove reaction solution and wash 3× with TBST buffer (200, 200, and 100 μl). Add 100 μl […] diluted primary antibody and shake at room temperature for 1 h. Remove diluted primary antibody and wash 3× with TBST buffer (200, 200, and 100 μl). Add 100 μl blocking buffer to each well and shake at room temperature for 10 min. Remove blocking buffer. Add 100 μl diluted secondary antibody. Shake at room temperature for 30 min. Remove diluted secondary antibody and wash 3× with TBST buffer (200, 200, and 100 μl). Add 100 μl blocking buffer to each well and shake at room temperature for 10 min. Remove blocking buffer. Combine horseradish peroxidase (HRP) substrate A and HRP substrate B at 1:1 ratio. Add 100 μl of HRP solution to each well. Immediately, read chemiluminescence (BioTek Synergy 2 plate reader).

DNMT3a = experiment: Inhibitory assay for DNMT3a; format: biochemical; settings: concentration of 500 μM
HT22 cells = experiment: Whole genome bisulfite sequencing in HT22 cells; format: cell-based, mouse; settings: 10 μM, 24 hours
Procedure: Whole genome bisulfite sequencing in HT22 cells was performed. […] Generally, the genome was broken into windows each containing 25 CpGs, and an analysis was performed to determine differentially methylated regions. […] Additionally, the differentially methylated regions (DMRs) were highly associated with DMRs detected for those Tet gene deficient cells/tissue.
HT-22 cells were provided by David Schubert at the Salk Institute (San Diego, Calif.). Cells were cultured in Dulbecco's Modified Eagle Medium (Life Technologies, Carlsbad, Calif.) supplemented with 10% FBS, 100 U/ml penicillin, and 100 μg/ml streptomycin (Life Technologies, Carlsbad, Calif.) at 37° C. and 5% CO2. […]
Cells were lysed and gDNA was extracted (Qiagen, DNeasy), bisulfite converted (Accel-NGS Methyl-Seq DNA Library, Swift), and sequenced (Hudson Alpha Discovery) on the Illumina platform (HiSeq_X10, paired end, 150 bp, 500 million reads per sample). Reads were QC'd by FastQC (v0.11.5), filtered by quality (average quality score <20), Illumina adapters removed, and sequencing primers trimmed using Trim_Galore! […] The filtered and trimmed reads were then mapped to the mouse genome (mm10), deduplicated, and CpG methylation levels extracted using Bismark (v0.19.0). Altered CpG methylation was determined by dividing the mouse genome into ˜850,000 windows, each containing 25 CpG sites. […]

T2 sequence (Q8NFU7 whole entry): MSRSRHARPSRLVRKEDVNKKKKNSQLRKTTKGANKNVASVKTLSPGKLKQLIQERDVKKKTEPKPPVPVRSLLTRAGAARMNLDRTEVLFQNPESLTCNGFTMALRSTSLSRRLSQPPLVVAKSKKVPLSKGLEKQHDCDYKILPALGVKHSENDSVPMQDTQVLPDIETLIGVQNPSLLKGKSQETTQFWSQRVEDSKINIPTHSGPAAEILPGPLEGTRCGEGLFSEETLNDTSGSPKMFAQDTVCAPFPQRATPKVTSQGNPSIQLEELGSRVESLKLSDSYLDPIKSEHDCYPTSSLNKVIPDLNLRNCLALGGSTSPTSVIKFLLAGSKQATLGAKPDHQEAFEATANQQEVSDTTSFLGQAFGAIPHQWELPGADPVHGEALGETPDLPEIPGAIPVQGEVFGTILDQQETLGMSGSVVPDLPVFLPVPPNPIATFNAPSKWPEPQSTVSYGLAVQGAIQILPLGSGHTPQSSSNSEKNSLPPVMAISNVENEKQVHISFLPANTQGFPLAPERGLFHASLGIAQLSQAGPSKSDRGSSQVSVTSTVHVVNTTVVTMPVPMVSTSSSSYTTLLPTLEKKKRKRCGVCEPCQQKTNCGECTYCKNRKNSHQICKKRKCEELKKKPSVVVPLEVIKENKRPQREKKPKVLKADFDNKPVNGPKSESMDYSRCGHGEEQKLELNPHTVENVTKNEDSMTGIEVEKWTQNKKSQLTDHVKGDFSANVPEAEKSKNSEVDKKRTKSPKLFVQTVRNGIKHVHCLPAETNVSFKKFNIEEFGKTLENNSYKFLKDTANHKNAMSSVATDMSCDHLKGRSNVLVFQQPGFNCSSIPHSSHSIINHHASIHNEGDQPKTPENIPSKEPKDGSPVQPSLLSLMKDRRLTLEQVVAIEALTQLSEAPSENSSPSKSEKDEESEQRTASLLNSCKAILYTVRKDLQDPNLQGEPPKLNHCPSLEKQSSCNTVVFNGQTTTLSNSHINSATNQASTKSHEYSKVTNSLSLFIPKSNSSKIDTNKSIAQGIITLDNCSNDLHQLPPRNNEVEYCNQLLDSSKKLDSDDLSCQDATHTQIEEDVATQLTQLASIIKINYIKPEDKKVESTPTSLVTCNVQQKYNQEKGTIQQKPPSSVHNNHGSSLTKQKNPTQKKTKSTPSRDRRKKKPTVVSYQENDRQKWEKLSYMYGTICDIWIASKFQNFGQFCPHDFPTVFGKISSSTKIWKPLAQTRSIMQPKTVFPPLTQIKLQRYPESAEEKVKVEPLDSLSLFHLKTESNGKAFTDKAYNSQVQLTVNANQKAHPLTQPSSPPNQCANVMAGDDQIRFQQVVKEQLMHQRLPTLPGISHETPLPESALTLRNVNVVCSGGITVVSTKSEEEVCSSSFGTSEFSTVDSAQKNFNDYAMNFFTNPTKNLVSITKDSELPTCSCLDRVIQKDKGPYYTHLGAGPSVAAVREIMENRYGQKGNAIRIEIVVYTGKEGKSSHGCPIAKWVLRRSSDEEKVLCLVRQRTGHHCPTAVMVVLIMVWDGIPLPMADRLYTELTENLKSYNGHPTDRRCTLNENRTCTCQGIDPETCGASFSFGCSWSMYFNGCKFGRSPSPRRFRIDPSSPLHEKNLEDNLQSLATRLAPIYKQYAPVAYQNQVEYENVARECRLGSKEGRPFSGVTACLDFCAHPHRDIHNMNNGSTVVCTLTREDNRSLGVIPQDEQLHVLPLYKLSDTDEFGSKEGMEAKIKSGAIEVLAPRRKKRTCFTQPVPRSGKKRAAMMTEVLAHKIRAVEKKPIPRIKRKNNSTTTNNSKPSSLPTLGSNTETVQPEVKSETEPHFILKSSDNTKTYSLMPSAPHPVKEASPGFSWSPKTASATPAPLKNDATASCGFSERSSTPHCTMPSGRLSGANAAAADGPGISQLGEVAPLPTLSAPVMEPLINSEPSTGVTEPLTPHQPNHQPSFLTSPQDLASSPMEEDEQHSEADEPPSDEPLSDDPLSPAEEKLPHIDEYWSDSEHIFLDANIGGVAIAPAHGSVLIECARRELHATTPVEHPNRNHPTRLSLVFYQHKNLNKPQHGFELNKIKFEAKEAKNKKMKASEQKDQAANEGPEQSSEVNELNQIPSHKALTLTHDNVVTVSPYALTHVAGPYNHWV

Compound: Nc1nc(=O)n(-c2ccccc2)cc1Cl [Bobcat216, 4-amino-5-chloro-1-phenylpyrimidin-2(1H)-one]
- IC50 (TET2): 98 µM

Compound: Nc1nc(=O)n(-c2ccc(-c3ccccc3)cc2)cc1Cl [Bobcat219, 1-([1,1′-biphenyl]-4-yl)-4-amino-5-chloropyrimidin-2(1H)-one]
- TET1 inhibition (in words) (TET1): significantly reduced TET1 inhibition

Compound: Nc1nc(=O)n(-c2ccccc2-c2ccccc2)cc1Cl [Bobcat337, 1-([1,1′-biphenyl]-2-yl)-4-amino-5-chloropyrimidin-2(1H)-one]
- TET1 inhibition (in words) (TET1): significantly reduced TET1 inhibition

Compound: Nc1nc(=O)n(-c2cccc(-c3ccccc3)c2)cc1Cl [Bobcat339, 1-([1,1′-biphenyl]-3-yl)-4-amino-5-chloropyrimidin-2(1H)-one]
- inhibition of DNMT3a (DNMT3a): failing to show substantial inhibition; also recorded: but not DNMT3a
- TET1 inhibition (in words) (TET1): significantly enhanced activity
- TET1 inhibition (in words) (TET1; listed as 3-biphenyl): significantly increased TET1 inhibition
- IC50 (TET1; dose-response, N=3): 33 µM
- differentially methylated regions (windows of 25 CpGs) (HT22 cells): A thousand such regions were observed, most of which are hypermethylated
- global CpG methylation (HT22 cells): significant change in global CpG methylation
